Data from PubChem BioAssay (NCI).
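Assay format: 96-well plates, 48-hour exposure. The concentration for full growth arrest is given as TGI.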 Where a SMILES comes first, the peptide text is derived from it. [ ]: non-standard residue; d: D form. The star is where a group is joined. Cbz = O=C(OCc1ccccc1)*; Aib = CC(C)(N)C(=O)O; OBn = c1ccc(CO*)cc1

Tests used:
Assay in all cases: DTP human tumour cell line panel, 48 h
SW-620 colon = test system: SW-620 colon
M14 melanoma = test system: M14 melanoma
UACC-257 melanoma = test system: UACC-257 melanoma
786-0 renal = test system: 786-0 renal
LOX IMVI melanoma = test system: LOX IMVI melanoma
HL-60(TB) leukemia = test system: HL-60(TB) leukemia
SK-MEL-2 melanoma = test system: SK-MEL-2 melanoma
MALME-3M melanoma = test system: MALME-3M melanoma
HCT-15 colon = test system: HCT-15 colon
DU-145 prostate = test system: DU-145 prostate
BT-549 breast = test system: BT-549 breast

| SMILES | TGI (SW-620 colon) [µM] | TGI (M14 melanoma) [µM] | TGI (UACC-257 melanoma) [µM] | TGI (786-0 renal) [µM] | TGI (LOX IMVI melanoma) [µM] | TGI (HL-60(TB) leukemia) [µM] | TGI (SK-MEL-2 melanoma) [µM] | TGI (MALME-3M melanoma) [µM] | TGI (HCT-15 colon) [µM] | TGI (DU-145 prostate) [µM] | TGI (BT-549 breast) [µM] |
| --- | --- | --- | --- | --- | --- | --- | --- | --- | --- | --- | --- |
| O=[N+]([O-])c1cc2oc(CSc3ccccc3)nc2cc1Cl | > 100 | > 100 | 82.2 | > 100 | > 100 | > 100 | 51.4 | > 100 | > 100 | > 100 | 80.8 |
| Cc1ccsc1/C=N/Nc1cnccn1 | > 100 | > 100 | > 100 | > 100 | > 100 | > 100 | > 100 | > 100 | > 100 | > 100 | > 100 |
| CC1(C)C=CC(=O)C(O)C(C)(C)C1=O (configuration not stated) | > 100 | > 100 | > 100 | > 100 | > 100 | > 100 | > 100 | > 100 | > 100 | > 100 | > 100 |
| C=C(C)CNCCN | > 100 | > 100 | > 100 | > 100 | > 100 | > 100 | > 100 | > 100 | > 100 | > 100 | > 100 |
| CC(C)(C)c1ccc2c(c1)C#Cc1cc3c(cc1OCCCO2)C#Cc1cc(C(C)(C)C)ccc1OCCCO3 | > 100 | > 100 | > 100 | > 100 | > 100 | > 100 | > 100 | > 100 | 5.92 | > 100 | 3.39 |
| COc1cc(Nc2ccc3c(c2)CCC3)nc(OC)n1 | > 100 | > 100 | > 100 | > 100 | > 100 | > 100 | > 100 | > 100 | > 100 | > 100 | > 100 |
| N#CC(c1ccccc1)N(CCOCCOCCN(C(=O)c1ccccc1)C(C#N)c1ccccc1)C(=O)c1ccccc1 (configuration not stated) | > 100 | > 100 | > 100 | > 100 | > 100 | > 100 | > 100 | > 100 | > 100 | > 100 | > 100 |
| O=C(CC(=O)Nc1ccccc1)NNC(Sc1ccccc1)c1cc(N=Nc2ccc(Br)cc2)ccc1O (configuration not stated) | > 10 | 3.47 | > 10 | > 10 | > 10 | 1.9 | > 10 | > 10 | > 10 | > 10 | > 10 |
| Cc1ccc(/C=C2/N=C(N/N=C\C(O)C(O)C(O)C(O)CO)NC2=O)cc1 (configuration not stated) | > 100 | > 100 | > 100 | > 100 | > 100 | > 100 | > 100 | > 100 | > 100 | > 100 | > 100 |
| CC(NC(=O)C(C)(C)NC(=O)C(CC(=O)OCc1ccccc1)NC(=O)OCc1ccccc1)C(N)=O (configuration not stated) (Cbz-Asp(OBn)-[Aib]-Ala-NH2; configuration not given here) | > 100 | > 100 | > 100 | > 100 | > 100 | > 100 | > 100 | > 100 | > 100 | > 100 | > 100 |
| O=C1/C(=C/c2ccc(Cl)cc2)CCCc2ccccc21 | 29 | 28.9 | 77.7 | 32.4 | 31 | 33.5 | 27.8 | 27.5 | 27.7 | 59 | 47.3 |
| OCCCc1ccc2c(c1)[C@H](CO)[C@@H](c1ccc(O)cc1)O2 | > 100 | > 100 | > 100 | > 100 | > 100 | > 100 | > 100 | 29.2 | > 100 | > 100 | 47.8 |
| COc1cc(O)c2c(=O)c(OC)c(-c3ccc(OC)c(O)c3)oc2c1 | > 100 | > 100 | > 100 | > 100 | > 100 | > 100 | > 100 | > 100 | > 100 | > 100 | > 100 |
| CC1=C(C#N)c2nc3ccccc3n2C(=O)C1(C)CCO (configuration not stated) | > 100 | > 100 | > 100 | > 100 | > 100 | > 100 | > 100 | > 100 | > 100 | > 100 | > 100 |
| O=C(CCSC1=NCCCN1)c1ccc(F)cc1 | 15.5 | 32.4 | 36.5 | 14.1 | 45.1 | 30.4 | 36.5 | 19.1 | 36.2 | 36 | 35.7 |
| c1ccc(C(C(=Nc2ccc(Cc3ccc(N=C(C(c4ccccc4)c4ccccc4)N4CC4)cc3)cc2)N2CC2)c2ccccc2)cc1 | 20.1 | 70 | 25.6 | 65.5 | 18.9 | 18.4 | 24.6 | 38.8 | 21.7 | 28 | 24.7 |
| CC(C)(C)OC(=O)NC(CSSCC(NC(=O)OC(C)(C)C)C(=O)O)C(=O)O (configuration not stated) | > 100 | > 100 | > 100 | > 100 | > 100 | > 100 | > 100 | > 100 | > 100 | > 100 | > 100 |
